These results are taken from PubChem BioAssay (NCI).

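Five concentrations, 48 hours, 96-well plates. GI50 = concentration required for 50% inhibition of growth. The concentration for full growth arrest is given as TGI.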

Among the test systems are SK-MEL-2 melanoma; A498 renal; KM12 colon; DLD-1 colon; UO-31 renal; DMS 273 small cell lung; DMS 114 small cell lung; SNB-78 CNS; SF-539 CNS; SF-268 CNS.
Holding throughout (experiment): NCI anticancer screen, dose series, 48 h

As for `O=C(c1ccccc1O)c1cc(-c2ncc3c(=O)c4ccccc4oc3n2)c(-c2ccccc2O)[nH]c1=O`, the TGI with SK-MEL-2 melanoma was 46.3 µM; with A498 renal, 57.1 µM; in the assay with KM12 colon it was more than 80 µM; in the assay on DLD-1 colon, more than 61.5 µM; with UO-31 renal, more than 79.7 µM; in the assay with DMS 273 small cell lung it was 88.3 µM. For the same molecule, the TGI with DMS 114 small cell lung is 80.4 µM; in the assay on SNB-78 CNS, more than 88.1 µM; with SF-539 CNS, 20.4 µM; in the assay with SF-268 CNS it was more than 75.9 µM.

Take `O=C(NNS(=O)(=O)c1ccccc1)c1csc(NC(=S)NC2CCCCC2)n1`: the TGI with SK-MEL-2 melanoma is 41.7 µM; with A498 renal, more than 100 µM; with KM12 colon it was more than 100 µM; with UO-31 renal, 74.1 µM; in the assay on SF-539 CNS, 62.3 µM; in the assay on SF-268 CNS, 62.8 µM.

`COc1ccc(CCCN2c3ccccc3Sc3ccccc32)cc1`: the TGI in the assay on SK-MEL-2 melanoma, with A498 renal, in the assay on KM12 colon, in the assay with DLD-1 colon, in the assay with UO-31 renal and in the assay on DMS 273 small cell lung was more than 100 µM throughout. Also, the TGI in the assay on DMS 114 small cell lung, in the assay with SNB-78 CNS, with SF-539 CNS and in the assay on SF-268 CNS was more than 100 µM each time.

In the case of `Cc1ccc(C#CS(=O)(=O)C(F)(F)F)cc1`, the TGI in the assay with SK-MEL-2 melanoma, in the assay on A498 renal, in the assay on KM12 colon, in the assay on DLD-1 colon, in the assay with UO-31 renal and in the assay on DMS 273 small cell lung was more than 100 µM throughout. Further, the TGI with DMS 114 small cell lung, in the assay on SNB-78 CNS, in the assay with SF-539 CNS and with SF-268 CNS was more than 100 µM in each case.

Regarding `CC(=O)c1[nH]c(Nc2ccc(C)cc2)c(C(=S)Nc2ccccc2)c1N`, the TGI in the assay on SK-MEL-2 melanoma is 31.9 µM; with A498 renal, 28.8 µM; in the assay with KM12 colon, 34.8 µM; in the assay with UO-31 renal, 28.4 µM; in the assay on SF-539 CNS, more than 100 µM; in the assay on SF-268 CNS, 30.2 µM.

`COc1ccc(C2=C(Cl)c3cc(OC)c(OC)cc3C2)cc1OC`: the TGI in the assay on A498 renal, in the assay on DLD-1 colon, in the assay on UO-31 renal, with DMS 273 small cell lung, in the assay on DMS 114 small cell lung and in the assay on SNB-78 CNS was more than 100 µM throughout. For the same molecule, the TGI in the assay with SF-539 CNS and with SF-268 CNS was more than 100 µM each time.

In the case of `COC12C=CC(CC1)C(C)(C)C2OS(C)(=O)=O` (configuration not stated), the TGI in the assay with SK-MEL-2 melanoma, in the assay with A498 renal, with KM12 colon, in the assay on UO-31 renal, in the assay on SF-539 CNS and with SF-268 CNS was more than 100 µM each time.

`O=C(/C=C/c1ccccc1)Oc1cccc(Br)c1`: the TGI in the assay with SK-MEL-2 melanoma, in the assay with A498 renal, with KM12 colon, in the assay on UO-31 renal, with SF-539 CNS and in the assay with SF-268 CNS was more than 100 µM each time.

`CN1C=COC1N=C1CCCCC1` (configuration not stated): the TGI in the assay with SK-MEL-2 melanoma, in the assay on A498 renal, in the assay on KM12 colon, with UO-31 renal, in the assay with SF-539 CNS and with SF-268 CNS was more than 100 µM in each case.

Take `C[C@@]12C[C@@H](c3ccccc3O1)N1Cc3ccccc3CSC1=N2`: the TGI in the assay with SK-MEL-2 melanoma, with A498 renal, in the assay with KM12 colon, in the assay with UO-31 renal, in the assay on SF-539 CNS and in the assay on SF-268 CNS was more than 100 µM in each case.

As for `COc1cc(/C(=C2/O[C@@H]([C@H]3COC(C)(C)O3)[C@H]3OC(C)(C)O[C@@H]23)c2ccc3c(c2)OCO3)cc(OC)c1OC`, the GI50 in the assay with SK-MEL-2 melanoma was more than 25 µM; with A498 renal, more than 25 µM; with KM12 colon, more than 25 µM; in the assay with UO-31 renal, more than 25 µM; with SF-539 CNS it was 8.05 µM; with SF-268 CNS, more than 25 µM. In addition, the TGI with SK-MEL-2 melanoma, in the assay on A498 renal, in the assay with KM12 colon, in the assay on UO-31 renal, in the assay with SF-539 CNS and in the assay with SF-268 CNS was more than 25 µM throughout.

With `O=C1O[C@H]2C3C4CCC(C4[C@@H]2I)[C@H]13` (some centres not stated), the TGI with SK-MEL-2 melanoma, in the assay on A498 renal, in the assay on KM12 colon, in the assay on UO-31 renal, in the assay with SF-539 CNS and in the assay on SF-268 CNS was more than 100 µM throughout.

`CC(=O)OCC1OC(n2c(N)c(C#N)c(-c3cccc(Cl)c3)c(C#N)c2=S)C(OC(C)=O)C(OC(C)=O)C1OC(C)=O` (configuration not stated): the TGI in the assay with SK-MEL-2 melanoma is 45.2 µM; in the assay with A498 renal it was 45.5 µM; with KM12 colon, 38.9 µM; in the assay with UO-31 renal it was more than 100 µM; in the assay on SF-539 CNS, 27.7 µM; with SF-268 CNS it was 39.4 µM.

With `COc1ccc(C2C(C#N)=C(S)N(C3OC(CO)C(O)C(O)C3O)C(C)=C2C(C)=O)cc1` (configuration not stated), the TGI in the assay with SK-MEL-2 melanoma, in the assay on A498 renal, in the assay with KM12 colon, in the assay on UO-31 renal, in the assay on SF-539 CNS and in the assay with SF-268 CNS was more than 100 µM in each case.

Regarding `CC(=O)OCC1OC(SC2=NC(=O)/C(=C/c3ccccc3)S2)C(OC(C)=O)C(OC(C)=O)C1OC(C)=O` (configuration not stated), the TGI in the assay with SK-MEL-2 melanoma is more than 100 µM; in the assay on A498 renal it was 81.2 µM; in the assay on KM12 colon, more than 100 µM; in the assay with UO-31 renal, 52.8 µM; in the assay with SF-539 CNS it was 45.7 µM; with SF-268 CNS, 52.3 µM.

Consider `COc1cc2c(c(OC)c1OC)-c1ccc(SC)c(=O)cc1[C@@H](NCc1cccc([N+](=O)[O-])c1)CC2`, for which the TGI was 0.0754 µM with KM12 colon; more than 100 µM in the assay with DLD-1 colon; more than 100 µM in the assay with UO-31 renal; more than 100 µM with SNB-78 CNS; 0.17 µM in the assay on SF-539 CNS; 28 µM with SF-268 CNS.

Take `O=c1[nH]nc(Cc2ccc(Cl)cc2)n1/N=C/c1c[nH]c2ccccc12`: the TGI in the assay with SK-MEL-2 melanoma, in the assay with A498 renal, in the assay on KM12 colon, in the assay on UO-31 renal, with SF-539 CNS and with SF-268 CNS was more than 100 µM throughout.
